System: malignant primary or metastatic tumors involving the CNS
Assay: Clinical and radiological tumor response (Macdonald criteria), immune modulating regimen in addition to standard chemoradiotherapy
Format: in vivo, human
Conditions: CNS melanoma subject, ipilimumab with radiotherapy, before the regimen
Method: Subjects used in the larger study were diagnosed with different primary or metastatic tumors involving the central nervous system: glioblastoma, carcinoma, or lymphoma. The oral immunomodulation regimen was offered to subjects in addition to standard therapy.
Samples were collected at scheduled clinic visits. […] Radiology studies were performed as part of standard evaluation.

ipilimumab
Disease course on prior therapy: progressed
